Laboratory results from ChEMBL document CHEMBL4673347, “Discovery of new thieno[2,3-d]pyrimidine and thiazolo[5,4-d]pyrimidine derivatives as orally active phosphoinositide 3-kinase inhibitors” (Bioorg Med Chem, 2021).

How the values were obtained:
[1] = molecular target: Phosphatidylinositol 4,5-bisphosphate 3-kinase catalytic subunit alpha isoform (Homo sapiens, UniProt P42336); assay: Inhibition of recombinant human full length His-tagged PI3Kalpha expressed in baculovirus expression system using PIP2 as substrate by ADP-Glo reagent based assay
HGC-27 [2] = assay: Antiproliferative activity against human HGC-27 cells assessed as reduction in cell viability incubated for 72 hrs measured after 4 hrs of MTT addition by MTT assay; type: functional, cell-based
HGC-27 [3] = assay: Induction of apoptosis in human HGC-27 cells assessed as viable cells at 500 nM incubated for 24 hrs by annexin V-FITC and propidium iodide based staining based flow cytometry analysis (reference value: 83.7 %); type: functional; conditions: read-out: Activity
HGC-27 [4] = assay: Induction of apoptosis in human HGC-27 cells assessed as early apoptotic cells at 500 nM incubated for 24 hrs by annexin V-FITC and propidium iodide based staining based flow cytometry analysis (reference value: 6.22 %); type: functional
HGC-27 [5] = assay: Induction of apoptosis in human HGC-27 cells assessed as late apoptotic cells at 500 nM incubated for 24 hrs by annexin V-FITC and propidium iodide based staining based flow cytometry analysis (reference value: 8.15 %); type: functional
HGC-27 [6] = assay: Induction of apoptosis in human HGC-27 cells assessed as necrotic cells at 500 nM incubated for 24 hrs by annexin V-FITC and propidium iodide based staining based flow cytometry analysis (reference value: 1.95 %); type: functional

Phosphatidylinositol 4,5-bisphosphate 3-kinase catalytic subunit alpha isoform, sequence (P42336 whole entry, canonical isoform): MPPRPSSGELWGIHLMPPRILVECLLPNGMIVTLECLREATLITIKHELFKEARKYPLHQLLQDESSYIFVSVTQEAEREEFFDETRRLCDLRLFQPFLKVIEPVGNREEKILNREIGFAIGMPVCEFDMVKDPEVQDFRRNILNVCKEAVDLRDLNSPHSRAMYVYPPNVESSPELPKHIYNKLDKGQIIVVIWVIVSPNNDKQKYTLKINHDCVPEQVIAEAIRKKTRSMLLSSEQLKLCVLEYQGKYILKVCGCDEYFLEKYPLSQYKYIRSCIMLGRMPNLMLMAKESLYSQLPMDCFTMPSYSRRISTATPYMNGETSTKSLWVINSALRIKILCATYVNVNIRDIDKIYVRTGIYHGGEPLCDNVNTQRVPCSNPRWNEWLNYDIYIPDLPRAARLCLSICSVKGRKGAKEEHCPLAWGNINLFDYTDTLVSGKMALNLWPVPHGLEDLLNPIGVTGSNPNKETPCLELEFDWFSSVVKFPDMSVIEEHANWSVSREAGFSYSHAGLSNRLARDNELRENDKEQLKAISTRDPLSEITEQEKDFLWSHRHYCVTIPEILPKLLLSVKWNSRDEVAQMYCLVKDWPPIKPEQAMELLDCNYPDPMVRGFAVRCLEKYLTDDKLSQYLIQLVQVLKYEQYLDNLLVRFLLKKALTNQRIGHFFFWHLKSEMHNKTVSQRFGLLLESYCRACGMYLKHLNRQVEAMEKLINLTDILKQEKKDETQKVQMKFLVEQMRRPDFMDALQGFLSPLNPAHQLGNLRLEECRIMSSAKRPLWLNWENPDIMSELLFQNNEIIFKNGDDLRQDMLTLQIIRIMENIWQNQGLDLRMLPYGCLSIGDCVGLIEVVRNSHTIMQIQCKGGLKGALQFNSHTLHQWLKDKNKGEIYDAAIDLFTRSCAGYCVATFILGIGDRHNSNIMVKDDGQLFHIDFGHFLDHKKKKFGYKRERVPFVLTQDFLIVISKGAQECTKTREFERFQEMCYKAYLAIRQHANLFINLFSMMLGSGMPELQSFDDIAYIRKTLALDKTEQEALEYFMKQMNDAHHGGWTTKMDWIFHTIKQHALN

IC50 [1]	Structure (SMILES)	IC50 (HGC-27 [2])	also measured
0.015 µM	COc1ncc(-c2cc3c(N4C[C@@H](C)O[C@@H](C)C4)ncnc3s2)cc1NS(=O)(=O)c1ccc(F)cc1F	0.56 µM	
0.014 µM	COc1ncc(-c2cc3c(N4CCCC4)ncnc3s2)cc1NS(=O)(=O)c1ccc(F)cc1F	2.3 µM	
0.014 µM	COc1ncc(-c2cc3c(N4CC5COCC5C4)ncnc3s2)cc1NS(=O)(=O)c1ccc(F)cc1F (stereo unspecified)	0.3 µM	
0.016 µM	COc1ncc(-c2cc3c(N4CCN(C)C(=O)C4)ncnc3s2)cc1NS(=O)(=O)c1ccc(F)cc1F	0.92 µM	
0.0051 µM	COc1ncc(-c2cc3c(-c4ccncc4)ncnc3s2)cc1NS(=O)(=O)c1ccc(F)cc1F	1.7 µM	
0.0035 µM	COc1ncc(-c2nc3c(N4CCCC4)ncnc3s2)cc1NS(=O)(=O)c1ccc(F)cc1F	1.2 µM	
0.0013 µM	COc1ncc(-c2nc3c(N4CCC(OC)CC4)ncnc3s2)cc1NS(=O)(=O)c1ccc(F)cc1F	0.074 µM	
0.002 µM	COc1ncc(-c2nc3c(N4CCOC[C@@H]4C)ncnc3s2)cc1NS(=O)(=O)c1ccc(F)cc1F	0.17 µM	
0.016 µM	COc1ncc(-c2cc3c(N4CC(C)OC(C)C4)ncnc3s2)cc1NS(=O)(=O)c1ccc(F)cc1F (racemic)	0.86 µM	
0.011 µM	COc1ncc(-c2nc3c(N4CC(C)OC(C)C4)ncnc3s2)cc1NS(=O)(=O)c1ccc(F)cc1F (stereo unspecified)	0.27 µM	
0.014 µM	COc1ncc(-c2cc3c(N4CCOC[C@H]4C)ncnc3s2)cc1NS(=O)(=O)c1ccc(F)cc1F	0.47 µM	
0.014 µM	COc1ncc(-c2cc3c(N4CCCCC4)ncnc3s2)cc1NS(=O)(=O)c1ccc(F)cc1F	1.2 µM	
	Nc1cc(C(F)(F)F)c(-c2cc(N3CCOCC3)nc(N3CCOCC3)n2)cn1 [BUPARLISIB]		viability at 0.5 µM (HGC-27 [3]): 74.9%; Activity (HGC-27 [4]): 15.9%; Activity (HGC-27 [5]): 8.93%; Activity (HGC-27 [6]): 0.3%
0.011 µM	COc1ncc(-c2cc3c(N4CCOC[C@@H]4C)ncnc3s2)cc1NS(=O)(=O)c1ccc(F)cc1F	0.67 µM	
0.0048 µM	COc1ncc(-c2cc3c(N4CCC(OC)CC4)ncnc3s2)cc1NS(=O)(=O)c1ccc(F)cc1F	0.28 µM	
0.017 µM	COc1ncc(-c2cc3c(N4CCSCC4)ncnc3s2)cc1NS(=O)(=O)c1ccc(F)cc1F	0.81 µM	
0.047 µM	COc1ncc(-c2cc3c(N4CC5CCCC5C4)ncnc3s2)cc1NS(=O)(=O)c1ccc(F)cc1F (stereo unspecified)	1.9 µM	
0.0019 µM	COc1ncc(-c2nc3c(N4CCOC[C@H]4C)ncnc3s2)cc1NS(=O)(=O)c1ccc(F)cc1F	0.047 µM	
0.109 µM	COc1ncc(-c2cc3c(N4CCN(C)CC4)ncnc3s2)cc1NS(=O)(=O)c1ccc(F)cc1F	0.56 µM	
0.0072 µM	COc1ncc(-c2cc3c(N4CC(OC)C4)ncnc3s2)cc1NS(=O)(=O)c1ccc(F)cc1F	0.83 µM	
0.0088 µM	COc1ncc(-c2nc3c(N4CCCCC4)ncnc3s2)cc1NS(=O)(=O)c1ccc(F)cc1F	0.96 µM	
0.0063 µM	COc1ncc(-c2nc3c(N4CC5CCCC5C4)ncnc3s2)cc1NS(=O)(=O)c1ccc(F)cc1F (stereo unspecified)	0.31 µM	
